# Measurements: the supplement of paper PMC11061612
# What was measured:
# [1] = system: EJM (Plasma Cell Myeloma); assay: combination Emax (second highest fraction inhibited in the dose matrix, 72 h); higher = more inhibition; extreme values may be limits of the assay
# In short: (§1)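 Cell lines grown in DMEM/F12 or RPMI with 10% FBS were plated in 1536-well plates and held 24 hours at 37°C, 5% CO2 before 72 hours of exposure to two-drug dose matrices, with DMSO typically at 0.2%. CellTiter-Glo 2.0 luminescence gave viability, which was converted to inhibition. Vehicle wells were set to 0 and blank wells to 1. Combination Emax is the second-highest inhibition in the matrix, and Bliss excess is the observed combination effect minus the expected EA + EB − EA·EB, where EA and EB are the single-agent effects.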
# [2] = system: SNU-387 (Hepatocellular Carcinoma); assay: as above
# In short: as §1
# [3] = system: SK-N-AS (Neuroblastoma); assay: as above
# In short: as §1
# [4] = system: COLO-668 (Small Cell Lung Carcinoma); assay: as above
# In short: as §1
# [5] = system: Ca-Ski (Cervical Carcinoma); assay: as above
# In short: as §1
# [6] = system: DU-145 (Prostate Carcinoma); assay: as above
# In short: as §1
# [7] = system: HCC1500 (Breast Carcinoma); assay: as above
# In short: as §1
# [8] = system: OE33 (Esophageal Adenocarcinoma); assay: as above
# In short: as §1
# [9] = system: NCI-H522 (Lung Adenocarcinoma); assay: as above
# In short: as §1
# [10] = system: NCI-H1355 (Lung Adenocarcinoma); assay: as above
# In short: as §1
# [11] = system: G-401 (Other Solid Carcinomas); assay: as above
# In short: as §1
# [12] = system: EFO-21 (Ovarian Carcinoma); assay: as above
# In short: as §1
# [13] = system: SW982 (Other Solid Carcinomas); assay: as above
# In short: as §1
# [14] = system: NCI-H2122 (Lung Adenocarcinoma); assay: as above
# In short: as §1
# [15] = system: NCI-H1092 (Small Cell Lung Carcinoma); assay: as above
# In short: as §1
# [16] = system: NCI-H1838 (Lung Adenocarcinoma); assay: as above
# In short: as §1
# [17] = system: HCC1937 (Breast Carcinoma); assay: as above
# In short: as §1
# [18] = system: SK-LU-1 (Lung Adenocarcinoma); assay: as above
# In short: as §1
# [19] = system: COLO-668 (Small Cell Lung Carcinoma); assay: Bliss excess, mean over the matrix (fraction); higher = more synergy
# In short: as §1
# [20] = system: SW872 (Other Solid Carcinomas); assay: as above
# In short: as §1
# 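For Bliss excess, mean over the matrix in this document: after 72 h of two-drug dosing.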
Compound,combination Emax [1],combination Emax [2],combination Emax [3],combination Emax [4],combination Emax [5],combination Emax [6],combination Emax [7],combination Emax [8],combination Emax [9],combination Emax [10],combination Emax [11],combination Emax [12],combination Emax [13],combination Emax [14],combination Emax [15],combination Emax [16],combination Emax [17],combination Emax [18],Bliss excess [19],Bliss excess [20]
"Cn1cnc2c(F)c(Nc3ccc(Br)cc3Cl)c(C(=O)NOCCO)cc21 [Selumetinib] + C[C@@H]1COCCN1C2=NC(=NC(=C2)C3(CC3)[S@](=N)(=O)C)C4=C5C=CNC5=NC=C4 [AZD6738] (first compound max 10 µM, 7x7, partner max 10 µM)",0.855,0.454,0.817,0.735,0.638,0.347,0.183,0.775,0.0701,0.596,0.684,0.255,0.593,0.972,0.111,0.374,0.421,0.376,0.038,0.0211
"Cn1cnc2c(F)c(Nc3ccc(Br)cc3Cl)c(C(=O)NOCCO)cc21 [Selumetinib] + CC(C)n1c(=O)n(C)c2cnc3cc(F)c(-c4ccc(OCCCN5CCCCC5)nc4)cc3c21 [AZD1390] (first compound max 10 µM, 7x7, partner max 0.3 µM)",0.0932,0.284,0.422,0.421,0.222,0.16,0.157,0.265,0.0811,0.172,0.367,0.205,0.266,0.864,0.0809,0.237,0.208,0.264,0.0314,0.0169
"COc1nnc2ccc(N3CCC(c4ccc(OCCN5CCN(C)C(=O)[C@H]5C)cc4)CC3)nn12 [AZD5153] + Cc1c2c(nn1C)CSCc1cc(n(C)n1)CSc1cc(c3ccccc3c1)OCCCc1c(C(=O)O)n(C)c3c-2c(Cl)ccc13 [AZD5991] (first compound max 1 µM, 7x7, partner max 1 µM)",0.89,0.614,0.739,0.564,0.835,0.242,0.696,0.242,0.942,0.358,0.956,0.414,0.771,0.913,0.865,0.731,0.507,0.388,0.0265,-0.0229
"Cc1c2c(nn1C)CSCc1cc(n(C)n1)CSc1cc(c3ccccc3c1)OCCCc1c(C(=O)O)n(C)c3c-2c(Cl)ccc13 [AZD5991] + Cc1cc2ncnn2cc1Nc1ncc2c(n1)n(C1CCOCC1)c(=O)n2C [AZD7648] (first compound max 1 µM, 7x7, partner max 10 µM)",0.971,0.393,0.59,0.187,0.331,0.23,0.465,0.237,0.362,0.393,0.616,0.32,0.371,0.597,0.583,0.259,0.362,0.399,0.0003,-0.0235
"Cc1c2c(nn1C)CSCc1cc(n(C)n1)CSc1cc(c3ccccc3c1)OCCCc1c(C(=O)O)n(C)c3c-2c(Cl)ccc13 [AZD5991] + C=CCn1c(=O)c2cnc(Nc3ccc(N4CCN(C)CC4)cc3)nc2n1-c1cccc(C(C)(C)O)n1 [AZD1775] (first compound max 1 µM, partner max 1 µM)",1,0.581,0.964,0.464,0.816,0.373,0.49,0.573,0.516,0.57,0.901,0.552,0.798,0.979,0.696,0.835,0.617,0.575,-0.0643,0.0634
"Cc1c2c(nn1C)CSCc1cc(n(C)n1)CSc1cc(c3ccccc3c1)OCCCc1c(C(=O)O)n(C)c3c-2c(Cl)ccc13 [AZD5991] + C[C@@H]1COCCN1C2=NC(=NC(=C2)C3(CC3)[S@](=N)(=O)C)C4=C5C=CNC5=NC=C4 [AZD6738] (first compound max 1 µM, 7x7, partner max 10 µM)",1,0.638,0.966,0.63,0.717,0.621,0.781,0.784,0.417,0.652,0.828,0.484,0.748,0.957,0.887,0.72,0.557,0.521,-0.0064,0.0323
"CCN(CCO)CCCOc1ccc2c(Nc3cc(CC(=O)Nc4cccc(F)c4)[nH]n3)ncnc2c1 [AZD2811] + C[C@@H]1COCCN1C2=NC(=NC(=C2)C3(CC3)[S@](=N)(=O)C)C4=C5C=CNC5=NC=C4 [AZD6738] (first compound max 1 µM, 7x7, partner max 10 µM)",0.858,0.494,0.784,0.644,0.607,0.596,0.312,0.8,0.142,0.679,0.536,0.45,0.71,0.902,0.236,0.643,0.47,0.473,-0.038,-0.0219
"CCN(CCO)CCCOc1ccc2c(Nc3cc(CC(=O)Nc4cccc(F)c4)[nH]n3)ncnc2c1 [AZD2811] + O=C(c1cc(Cc2n[nH]c(=O)c3ccccc23)ccc1F)N1CCN(C(=O)C2CC2)CC1 [Olaparib] (first compound max 1 µM, 7x7, partner max 10 µM)",0.167,0.17,0.249,0.178,0.289,0.199,0.22,0.127,0.221,0.318,0.496,0.203,0.658,0.437,0.212,0.275,0.238,0.229,-0.0032,0.017
"CN(C)CCCOc1ccc(-c2ccc3ncc4c(c3c2)n(C2CCOCC2)c(=O)n4C)cn1 [AZD0156] + C=CCn1c(=O)c2cnc(Nc3ccc(N4CCN(C)CC4)cc3)nc2n1-c1cccc(C(C)(C)O)n1 [AZD1775] (first compound max 1 µM, partner max 1 µM)",0.858,0.464,0.77,0.405,0.7,0.239,0.283,0.472,0.225,0.532,0.646,0.472,0.71,0.793,0.301,0.465,0.475,0.384,-0.039,-0.0183
"C=CCn1c(=O)c2cnc(Nc3ccc(N4CCN(C)CC4)cc3)nc2n1-c1cccc(C(C)(C)O)n1 [AZD1775] + C1CN(CCC1(C(=O)N[C@@H](CCO)C2=CC=C(C=C2)Cl)N)C3=NC=NC4=C3C=CN4 [Capivasertib] (first compound max 3 µM, partner max 3 µM)",0.923,0.687,0.766,0.545,0.825,0.449,0.413,0.639,0.612,0.646,0.646,0.515,0.674,0.931,0.533,0.501,0.873,0.634,-0.0726,-0.106
"Cc1c2c(nn1C)CSCc1cc(n(C)n1)CSc1cc(c3ccccc3c1)OCCCc1c(C(=O)O)n(C)c3c-2c(Cl)ccc13 [AZD5991] + C[C@@H](Nc1cc(F)cc(F)c1)c1cc(C(=O)N(C)C)cc2c(=O)cc(N3CCOCC3)oc12 [AZD8186] (first compound max 1 µM, 7x7, partner max 3 µM)",0.929,0.41,0.643,0.205,0.556,0.179,0.426,,0.452,0.227,0.612,0.337,0.443,0.697,0.569,0.472,0.511,0.384,-0.0011,-0.0214
"C=CCn1c(=O)c2cnc(Nc3ccc(N4CCN(C)CC4)cc3)nc2n1-c1cccc(C(C)(C)O)n1 [AZD1775] + C[C@@H]1COCCN1C2=NC(=NC(=C2)C3(CC3)[S@](=N)(=O)C)C4=C5C=CNC5=NC=C4 [AZD6738] (first compound max 1 µM, partner max 10 µM)",0.904,0.7,,0.893,0.869,0.604,0.382,0.819,0.487,0.777,0.793,0.543,0.807,0.961,0.397,0.733,0.68,0.488,0.0917,0.053
"CN(CCO)CC[C@H](CSc1ccccc1)Nc1ccc(S(=O)(=O)NC(=O)c2ccc(N3CCC([C@@H](O)c4ccccc4-c4ccc(Cl)cc4)CC3)cc2)cc1S(=O)(=O)C(F)(F)F [AZD4320] + CN(C)CCCOc1ccc(-c2ccc3ncc4c(c3c2)n(C2CCOCC2)c(=O)n4C)cn1 [AZD0156] (first compound max 1 µM, 7x7, partner max 1 µM)",0.162,0.183,0.109,,0.268,0.0779,0.998,0.0749,0.0875,0.162,0.266,0.179,0.225,0.24,0.862,0.225,0.439,0.322,0.0435,-0.0107
